Experimental data: US6521656B1, “Remedies for male sterility” (Fujisawa Pharmaceutical Co., Ltd., priority 1998, dated 2003)

System: human sperm
Test: Test for evaluation of the promoting effect on the induction of sperm acrosomal reaction (FITC-concanavalin A fluorescence staining)
Type: cell-based
Conditions: for acrosomal reaction induction rate (%): incubation time 3; for induction of acrosomal reaction: human sperm, summary in words
Experimental: Percoll for sperm washing was isotonized and adjusted to 90% with 20 mM Hepes buffered Hanks solution (pH 7.4; supplemented with 1.0 mg/ml BSA). The ejaculated human seminal fluid was allowed to liquefy at room temperature, diluted 2-fold with Hanks solution, and layered on 6.0 ml Percoll. In the Percoll layer, a glass capillary had been inserted in advance. The system was centrifuged at 1000×g for 30 minutes to precipitate motile sperm. The precipitated sperm was aspirated through the capillary and recovered. The sperm was resuspended in Hanks solution at a final concentration of about 50×10^6/ml and cultured at 37° C.
The human sperm acrosomal reaction was monitored by a fluorescence staining technique using FITC-concanavalin A.
As the acrosomal cap splits off on acrosomal reaction, the membrane protein rich in the high-mannose sugar chain on the acrosomal tunica intima becomes exposed. Therefore, the sperm showing a yellow fluorescence in the anterior half of the head was regarded as acrosomal reaction-induced sperm.
Compound A was added to the sperm suspension at a final concentration of 10^−6 or 10^−7 M. Observation was made in the group supplemented with 1 I.U./ml of adenosine deaminase and the non-enzyme-addition group.
Compounds B and C were respectively added to the sperm suspension at a final concentration of 10^−7 M. Observation was made in the groups supplemented with 1 I.U./ml of adenosine deaminase.
Each figure denotes the acrosomal reaction induction rate (%) (the mean±S.E. of 3 observations in Table 1; the mean±S.E. of 5 observations in Tables 2 and 3). In Table 1, the figure in the top row represents the result obtained in the absence of adenosine deaminase and the figures in the bottom row represent the results in the presence of adenosine deaminase.

SMILES	acrosomal reaction induction rate (%) (Compound A 10^−6 M, absence of adenosine deaminase, mean±S.E. of 3 observations)	acrosomal reaction induction rate (%) (Compound A 10^−6 M, presence of adenosine deaminase 1 I.U./ml, mean±S.E. of 3 observations)	acrosomal reaction induction rate (%) (Compound A 10^−7 M, absence of adenosine deaminase, mean±S.E. of 3 observations)	acrosomal reaction induction rate (%) (Compound A 10^−7 M, presence of adenosine deaminase 1 I.U./ml, mean±S.E. of 3 observations)	induction of acrosomal reaction	acrosomal reaction induction rate (%) (Compound C 10^−7 M, supplemented with 1 I.U./ml adenosine deaminase, mean±S.E. of 5 observations)	acrosomal reaction induction rate (%) (Compound B 10^−7 M, supplemented with 1 I.U./ml adenosine deaminase, mean±S.E. of 5 observations)
O=C(O)CCCn1nc(-c2c(-c3ccccc3)nn3ccccc23)ccc1=O [Compound A, 3-[2-(3-Carboxypropyl)-3-oxo-2,3-dihydropyridazin-6-yl]-2-phenylpyrazolo[1,5-a]pyridine]	43.7 ± 2.77	63.6 ± 1.84	47.1 ± 2.37	64.1 ± 1.73	promoted	–	–
O=C(O)CC1=C(n2nc(-c3c(-c4ccccc4)nn4ccccc34)ccc2=O)CCCC1 [Compound C, 3-[2-(2-Carboxymethyl-1-cyclohexenyl)-3-oxo-2,3-dihydropyridazin-6-yl]-2-phenylpyrazolo[1,5-a]pyridine]	–	–	–	–	promoted	48.86 ± 2.57	–
O=C(O)C[C@H]1CCCCN1C(=O)C=Cc1c(-c2ccccc2)nn2ccccc12 (single isomer, unassigned) [Compound B]	–	–	–	–	promoted	–	41.26 ± 2.18
